US12390460B2, “Treatment for obesity” (1GLOBE BIOMEDICAL CO., LTD., priority 2018, dated 2025)

What was measured:
human HepG2 liver cells [1] = assay: Intracellular fat content in HepG2 cells, AdipoRed/Hoechst 33258 double staining, 48 hours; assay type: cell-based; conditions: HepG2, 0.8 mM palmitoleic acid, 0.1 μM compound, FIG. 10C; for palmitoleic acid-induced increase of intracellular triglyceride content: vs DMSO
Experimental: And the effects of Compound 001, Compound 004, Compound 006, Compound 013, Compound 132, Compound 133 and Compound 134, as further exemplary compounds of the invention, were also tested. Human HepG2 liver cells were incubated with 0.8 mM palmitoleic acid in EMEM medium for 48 hours in the presence of 0.1 μM compounds of the invention or control vehicle, DMSO. Subsequently, the cells were washed with PBS and the intracellular fat content was measured by AdipoRed/Hoechst 33258 double staining, which was assessed by flourometry.

human HepG2 liver cells [2] = assay: Intracellular fat content in HepG2 cells, AdipoRed/Hoechst 33258 double staining, 24 hours; assay type: cell-based; conditions: HepG2, 0.8 mM palmitoleic acid, 0.1 μM compound, FIG. 10B; for palmitoleic acid-induced increase of intracellular triglyceride content: vs DMSO
Experimental: The effects of Compound 13-3-1, Compound 13-3-2, Compound 13-3-3, Compound 13-3-5, Compound 13-3-6, Compound 13-3-7, Compound 15-1, Compound 13-3-10 and Compound 13-3-11, as exemplary compounds of the invention, were tested. Human HepG2 liver cells were incubated with 0.8 mM palmitoleic acid in EMEM medium for 24 hours in the presence of 0.1 μM compounds or control vehicle, DMSO. Subsequently, the cells were washed with PBS and the intracellular fat content was measured by AdipoRed/Hoechst 33258 double staining, which was assessed by flourometry.

| SMILES | inhibitory effect on fat accumulation as compared to Compound 14-3 (human HepG2 liver cells [1]) | palmitoleic acid-induced increase of intracellular triglyceride content (human HepG2 liver cells [1]) | inhibitory effect on fat accumulation as compared to Compound 14-3 (human HepG2 liver cells [2]) | palmitoleic acid-induced increase of intracellular triglyceride content (human HepG2 liver cells [2]) |
| --- | --- | --- | --- | --- |
| [2H]C([2H])(NC(=O)c1c(C)[nH]c(/C=C2\C(=O)Nc3ccc(-c4csc(-c5ccccc5)n4)cc32)c1C)C([2H])([2H])N(CC)CC [Compound 001] | comparable or greater | markedly suppressed |  |  |
| CCN(CC)CCNC(=O)c1c(C)[nH]c(/C=C2\C(=O)Nc3cnc(-c4csc(-c5ccccc5)n4)cc32)c1C [Compound 13-3-10] |  |  | comparable or greater | markedly suppressed |
| Cc1[nH]c(/C=C2\C(=O)Nc3ccc(-c4csc(-c5cccnc5)n4)cc32)c(C)c1C(=O)N1CCN(C)CC1 [Compound 15-1] |  |  | comparable or greater | markedly suppressed |
| [2H]C([2H])([2H])C([2H])([2H])N(C([2H])([2H])C([2H])([2H])[2H])C([2H])([2H])C([2H])([2H])NC(=O)c1c(C)[nH]c(/C=C2\C(=O)Nc3ccc(-c4csc(-c5ccccc5)n4)cc32)c1C [Compound 004] | comparable or greater | markedly suppressed |  |  |
| CCN(CC)CCC(=O)N1CCN(c2ccc(/C=C3\C(=O)Nc4ccc(-c5csc(-c6ccccc6)n5)cc43)cc2)CC1 [Compound 13-3-6] |  |  | comparable or greater | markedly suppressed |
| CCN(CC)CCNC(=O)c1c(C)[nH]c(/C=C2\C(=O)Nc3cccc(-c4cnc(OC)nc4)c32)c1C [Compound 13-3-5] |  |  | comparable or greater | markedly suppressed |
| CCN(CC)CCNC(=O)CCc1c(C)[nH]c(/C=C2\C(=O)Nc3ccc(-c4csc(-c5ccccc5)n4)cc32)c1C [Compound 13-3-7] |  |  | comparable or greater | markedly suppressed |
| CCN(CC)CCNC(=O)c1c(C)[nH]c(/C=C2\C(=O)Nc3ccc(-c4csc(N5CCCCC5)n4)cc32)c1C [Compound 13-3-2] |  |  | comparable or greater | markedly suppressed |
| CCN(CC)CCNC(=O)c1c(C)[nH]c(/C=C2\C(=O)Nc3ccc(C4CCN(c5ccccc5)CC4)cc32)c1C [Compound 13-3-11] |  |  | comparable or greater | markedly suppressed |
| [2H]c1c([2H])c([2H])c(-c2nc(-c3ccc4c(c3)/C(=C/c3[nH]c(C)c(C(=O)NC([2H])([2H])C([2H])([2H])N(C([2H])([2H])C([2H])([2H])[2H])C([2H])([2H])C([2H])([2H])[2H])c3C)C(=O)N4)cs2)c([2H])c1[2H] [Compound 006] | comparable or greater | markedly suppressed |  |  |
| [2H]c1c([2H])c([2H])c(-c2nc(-c3ccc4c(c3)/C(=C/c3[nH]c(C)c(C(=O)NC([2H])([2H])C([2H])([2H])N(CC)CC)c3C)C(=O)N4)cs2)c([2H])c1[2H] [Compound 013] | comparable or greater | markedly suppressed |  |  |
| CCN(CC)CCNC(=O)c1c(C)[nH]c(/C=C2\C(=O)Nc3ccc(-c4csc(Nc5ccccc5)n4)cc32)c1C [Compound 13-3-1] |  |  | comparable or greater | markedly suppressed |
